Measurements reported in the supplement of paper PMC11061612.

Columns and labels:
Test in all cases: Bliss excess, mean over the matrix (fraction); higher = more synergy
[1] = test system: YT (Other Blood Carcinomas)
In short: (§1)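 Cell lines in DMEM/F12 or RPMI with 10% FBS were plated in 1536-well plates, held 24 hours at 37°C, 5% CO2, then given two-drug dose matrices for 72 hours (DMSO typically 0.2%). Viability was read by CellTiter-Glo 2.0 luminescence and scaled as inhibition from 0 (vehicle wells) to 1 (blank wells). Combination Emax is the second-highest inhibition in the matrix; Bliss excess is observed combination effect minus expected EA + EB − EA·EB, EA and EB being single-agent effects.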

[2] = test system: DOK (Oral Cavity Carcinoma)
In short: as §1

[3] = test system: HLE (Hepatocellular Carcinoma)
In short: as §1

[4] = test system: SK-LMS-1 (Other Solid Carcinomas)
In short: as §1

[5] = test system: CAL-39 (Other Solid Carcinomas)
In short: as §1

MCF7 (Breast Carcinoma) = test system: MCF7 (Breast Carcinoma)
In short: as §1

[6] = test system: PA-TU-8902 (Pancreatic Carcinoma)
In short: as §1

[7] = test system: HCC1143 (Breast Carcinoma)
In short: as §1

SK-MEL-1 (Melanoma) = test system: SK-MEL-1 (Melanoma)
In short: as §1

D-392MG (Glioblastoma) = test system: D-392MG (Glioblastoma)
In short: as §1

Saos-2 (Osteosarcoma) = test system: Saos-2 (Osteosarcoma)
In short: as §1

[8] = test system: KG-1 (Acute Myeloid Leukemia)
In short: as §1

SMILES	Bliss excess [1]	Bliss excess [2]	Bliss excess [3]	Bliss excess [4]	Bliss excess [5]	Bliss excess (MCF7 (Breast Carcinoma))	Bliss excess [6]	Bliss excess [7]	Bliss excess (SK-MEL-1 (Melanoma))	Bliss excess (D-392MG (Glioblastoma))	Bliss excess (Saos-2 (Osteosarcoma))	Bliss excess [8]
Cc1c2c(nn1C)CSCc1cc(n(C)n1)CSc1cc(c3ccccc3c1)OCCCc1c(C(=O)O)n(C)c3c-2c(Cl)ccc13 [AZD5991] + C1CN(CCC1(C(=O)N[C@@H](CCO)C2=CC=C(C=C2)Cl)N)C3=NC=NC4=C3C=CN4 [Capivasertib] (first compound max 1 µM, 7x7, partner max 3 µM)	-0.0466	-0.0113	0.0341	0.0054	-0.0203	0.0778	-0.041	0.0114	-0.0373	0.0557	0.0473	-0.0164
Cc1c2c(nn1C)CSCc1cc(n(C)n1)CSc1cc(c3ccccc3c1)OCCCc1c(C(=O)O)n(C)c3c-2c(Cl)ccc13 [AZD5991] + CC1(C)CCC(CN2CCN(c3ccc(C(=O)NS(=O)(=O)c4ccc(NCC5CCOCC5)c([N+](=O)[O-])c4)c(Oc4cnc5[nH]ccc5c4)c3)CC2)=C(c2ccc(Cl)cc2)C1 [Venetoclax] (first compound max 1 µM, 7x7, partner max 1 µM)	-0.0017	0.0712	-0.0061	-0.0422	-0.0298	0.0623	-0.0595	0.0051	-0.0536	0.0314	0.0174	0.119
Cc1c2c(nn1C)CSCc1cc(n(C)n1)CSc1cc(c3ccccc3c1)OCCCc1c(C(=O)O)n(C)c3c-2c(Cl)ccc13 [AZD5991] + CCN(CCO)CCCOc1ccc2c(Nc3cc(CC(=O)Nc4cccc(F)c4)[nH]n3)ncnc2c1 [AZD2811] (first compound max 1 µM, 7x7, partner max 1 µM)	0.0185	0.0524	-0.0018	-0.0538	-0.0192	0.0081	-0.0356	0.0514	-0.0194	0.0121	0.0534	0.032
Cc1c2c(nn1C)CSCc1cc(n(C)n1)CSc1cc(c3ccccc3c1)OCCCc1c(C(=O)O)n(C)c3c-2c(Cl)ccc13 [AZD5991] + CN(C)CCCOc1ccc(-c2ccc3ncc4c(c3c2)n(C2CCOCC2)c(=O)n4C)cn1 [AZD0156] (first compound max 1 µM, 7x7, partner max 1 µM)	-0.0197	-0.0121	0.0424	-0.0645	-0.0786	-0.0063	0.0116	-0.0287	-0.0322	-0.0225	-0.0158	0.0115
Cc1c2c(nn1C)CSCc1cc(n(C)n1)CSc1cc(c3ccccc3c1)OCCCc1c(C(=O)O)n(C)c3c-2c(Cl)ccc13 [AZD5991] + C[C@@H](Nc1cc(F)cc(F)c1)c1cc(C(=O)N(C)C)cc2c(=O)cc(N3CCOCC3)oc12 [AZD8186] (first compound max 1 µM, 7x7, partner max 3 µM)	0.0223	0.003	0.0254	-0.0056	0.0117	-0.01	-0.0361	0.0441	-0.0232	0.0111	-0.0271	0.0031
Cc1c2c(nn1C)CSCc1cc(n(C)n1)CSc1cc(c3ccccc3c1)OCCCc1c(C(=O)O)n(C)c3c-2c(Cl)ccc13 [AZD5991] + Cn1cnc2c(F)c(Nc3ccc(Br)cc3Cl)c(C(=O)NOCCO)cc21 [Selumetinib] (first compound max 1 µM, 7x7, partner max 3 µM)	-0.0051	0.0495	-0.0459	-0.0257	0.02	-0.0435	-0.0466	0.0552	-0.01	0.0339	-0.007	0.0316
Cc1cc2ncnn2cc1Nc1ncc2c(n1)n(C1CCOCC1)c(=O)n2C [AZD7648] + C=CCn1c(=O)c2cnc(Nc3ccc(N4CCN(C)CC4)cc3)nc2n1-c1cccc(C(C)(C)O)n1 [AZD1775] (first compound max 10 µM, partner max 1 µM)	-0.124	0.0331	-0.0273	-0.0661	-0.0211	0.0442	0.0152	-0.0183	-0.0561	0.0035	-0.0696	-0.0652
Cc1cc2ncnn2cc1Nc1ncc2c(n1)n(C1CCOCC1)c(=O)n2C [AZD7648] + CCN(CCO)CCCOc1ccc2c(Nc3cc(CC(=O)Nc4cccc(F)c4)[nH]n3)ncnc2c1 [AZD2811] (first compound max 10 µM, 7x7, partner max 1 µM)	0.0407	0.0123	0.0271	-0.0162	-0.0393	-0.0135	0.0315	-0.003	-0.0162	-0.0108	0.0364	0.0351
Cc1cc2ncnn2cc1Nc1ncc2c(n1)n(C1CCOCC1)c(=O)n2C [AZD7648] + CN(C)CCCOc1ccc(-c2ccc3ncc4c(c3c2)n(C2CCOCC2)c(=O)n4C)cn1 [AZD0156] (first compound max 10 µM, 7x7, partner max 1 µM)	-0.0389	-0.0075	-0.0274	0.0028	-0.0104	-0.0048	-0.0013	0.0031	-0.0082	-0.0405	-0.016	-0.0155
Cc1cc2ncnn2cc1Nc1ncc2c(n1)n(C1CCOCC1)c(=O)n2C [AZD7648] + C[C@@H]1COCCN1C2=NC(=NC(=C2)C3(CC3)[S@](=N)(=O)C)C4=C5C=CNC5=NC=C4 [AZD6738] (first compound max 10 µM, 7x7, partner max 10 µM)	-0.0476	0.0441	0.0049	0.0215	0.0081	-0.0192	0.0186	-0.0328	-0.0388	0.0217	-0.0169	-0.0024
Cc1cc2ncnn2cc1Nc1ncc2c(n1)n(C1CCOCC1)c(=O)n2C [AZD7648] + O=C(c1cc(Cc2n[nH]c(=O)c3ccccc23)ccc1F)N1CCN(C(=O)C2CC2)CC1 [Olaparib] (first compound max 10 µM, 7x7, partner max 10 µM)	-0.0004	-0.0334	-0.036	-0.0295	-0.0323	-0.0625	-0.0237	-0.0401	0.0039	-0.0456	-0.0322	-0.0312
COc1cccc2c1C(=O)c1c(O)c3c(c(O)c1C2=O)C[C@@](O)(C(=O)CO)C[C@@H]3O[C@H]1C[C@H](N)[C@H](O)[C@H](C)O1 [Doxorubicin] + Cc1cc2ncnn2cc1Nc1ncc2c(n1)n(C1CCOCC1)c(=O)n2C [AZD7648] (first compound max 1 µM, 7x7, partner max 10 µM)	0.0344	0.0485	0.0309	0.0633	0.0233	0.058	0.0081	0.0202	0.0138	0.0458	0.0415	0.0044
COc1cccc(OCCCN)c1-c1cc(Nc2cnc(C#N)cn2)n[nH]1 [Prexasertib] + C=CCn1c(=O)c2cnc(Nc3ccc(N4CCN(C)CC4)cc3)nc2n1-c1cccc(C(C)(C)O)n1 [AZD1775] (first compound max 1 µM, partner max 1 µM)	-0.0086	0.108	0.0125	0.0434	0.0679	0.0197	0.0716	0.0271	-0.0084	0.109	0.105	0.0038
COc1cccc(OCCCN)c1-c1cc(Nc2cnc(C#N)cn2)n[nH]1 [Prexasertib] + CN(C)CCCOc1ccc(-c2ccc3ncc4c(c3c2)n(C2CCOCC2)c(=O)n4C)cn1 [AZD0156] (first compound max 1 µM, 7x7, partner max 1 µM)	-0.0114	-0.0225	-0.0646	-0.02	0.0099	0.149	0.0068	-0.0453	-0.0194	-0.0235	-0.0869	-0.0289
COc1cccc(OCCCN)c1-c1cc(Nc2cnc(C#N)cn2)n[nH]1 [Prexasertib] + C[C@@H]1COCCN1C2=NC(=NC(=C2)C3(CC3)[S@](=N)(=O)C)C4=C5C=CNC5=NC=C4 [AZD6738] (first compound max 1 µM, 7x7, partner max 10 µM)	-0.0631	0.0689	0	-0.029	0.0251	0.017	0.0229	-0.026	-0.015	0.0355	-0.0739	-0.0531
COc1cccc(OCCCN)c1-c1cc(Nc2cnc(C#N)cn2)n[nH]1 [Prexasertib] + Cc1cc2ncnn2cc1Nc1ncc2c(n1)n(C1CCOCC1)c(=O)n2C [AZD7648] (first compound max 1 µM, 7x7, partner max 10 µM)	-0.0508	0.0019	-0.064	0.0078	-0.0122	0.0688	-0.0059	-0.0318	-0.0247	-0.0254	-0.0591	-0.0264
COc1cccc(OCCCN)c1-c1cc(Nc2cnc(C#N)cn2)n[nH]1 [Prexasertib] + O=C(c1cc(Cc2n[nH]c(=O)c3ccccc23)ccc1F)N1CCN(C(=O)C2CC2)CC1 [Olaparib] (first compound max 1 µM, 7x7, partner max 10 µM)	-0.0314	-0.0269	-0.0458	-0.0676	-0.008	-0.0236	-0.0783	-0.18	-0.0435	-0.0698	-0.0123	-0.0343
COc1cc2c(cc1OCCCCCOc1cc3c(cc1OC)C(=O)N1C=C(C)C[C@H]1C=N3)N=C[C@@H]1CC(C)=CN1C2=O [SG3199] + O=C(c1cc(Cc2n[nH]c(=O)c3ccccc23)ccc1F)N1CCN(C(=O)C2CC2)CC1 [Olaparib] (first compound max 0.001 µM, 7x7, partner max 10 µM)	0.019	-0.0368	-0.0323	-0.0375	-0.0306	-0.0444	-0.0291	-0.0216	-0.0239	-0.0623	-0.0277	0.0015
CCc1c2c(nc3ccc(O)cc13)-c1cc3c(c(=O)n1C2)COC(=O)[C@]3(O)CC [SN-38] + CN(C)CCCOc1ccc(-c2ccc3ncc4c(c3c2)n(C2CCOCC2)c(=O)n4C)cn1 [AZD0156] (first compound max 0.3 µM, 7x7, partner max 1 µM)	-0.0872	0.0323	-0.0434	0.0274	-0.0039	-0.0388	0.0406	0.0405	-0.0583	0.0957	-0.0279	-0.0585
CC(=O)Nc1cccc(-n2c(=O)n(C3CC3)c(=O)c3c(Nc4ccc(I)cc4F)n(C)c(=O)c(C)c32)c1 [Trametinib] + Cc1nc(-c2cn3c(n2)-c2ccc(-c4cnn(C(C)(C)C(N)=O)c4)cc2OCC3)n(C(C)C)n1 [Taselisib] (first compound max 1 µM, 7x7, partner max 10 µM)	-0.0043	0.0767	-0.0291	0.0854	0.0657	0.0979	0.108	0.0615	0.0238	0.137	0.0402	0.131
